In patent US11434205B2, “Substituted imidazole carboxylate derivatives and the use thereof” (priority 2018, dated 2022):
Like-named read-outs stand apart in the source and are kept apart here.

Legend:
[1] = test system: rats; assay: Loss of righting reflexes (LORR) assay in rats, ED50 by up and down method; format: in vivo, rat; conditions: Rattus norvegicus, tail vein, class symbols
How it was run: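 Adult male Sprague-Dawley rats (250-300 g) dosed i.v. via tail vein at 0.1 mL/s. Anesthesia scored as loss of righting reflex lasting >30 s; ED50 derived by up-and-down method.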

[2] = test system: rats
Method: Adult male Sprague-Dawley rats (250-300 g) were selected for the experiment. […] The anesthesia effects of the compounds were assessed in rats using a LORR assay and a period >30 s was considered as an indicator of general anesthesia. Then the up and down method was used to determine 50% effective dose (ED50). The drugs were administered through the tail vein of rats in a volume of 0.6 mL and at a rate of 0.1 mL/s.

[3] = test system: rats; assay: Pharmacological characteristics at equivalent doses (2×ED50) in rats; conditions: 2×ED50, tail vein; for Adverse reactions: Red urine (incidence): DMSO solution (DMSO alone 10/10); for Onset time: time of LORR
How it was run: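 Adult male Sprague-Dawley rats (250-300 g, n=8) received each drug at twice its ED50 via tail vein (0.6 mL at 0.1 mL/s). Onset of anesthesia taken as time to LORR.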

[4] = test system: secretion of corticosterone, H295R cell line; assay: cells; format: cell-based; conditions: for EC50: read-out: EC50 (Corticosterone)
Method: (§1) The Effects of the Compounds on Adrenocortical Function In Vitro Test
(§2) Then secretion of the cortisol and corticosterone in the supernatant, was measured using HPLC-MS/MS method to determine whether the compounds of the present invention had adrenotoxic potential.

[5] = test system: secretion of cortisol, H295R cell line; assay: cells; format: cell-based; conditions: for EC50: read-out: EC50 (Cortisol)
Method: as §1, §2

[6] = test system: rats; format: in vivo, rat; conditions: rats of the MAP/HR figures, 2×ED50, tail vein; same value in min
How it was run: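 Rats implanted with telemetry (left ventricular and abdominal aortic catheters, ECG leads) at least one week before recording; compounds given via lateral tail-vein catheter. MAP and HR sampled every 15 s for 30 min before and after dosing to judge hemodynamic stability.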

[7] = test system: rats; conditions: continuous tail vein infusion at 2×MIR, LORR maintained 1 hour
Method: Pharmacological Effects of the Compounds on Continuous Infusion in Rats
Adult male Sprague-Dawley rats with body weight ranging from 250 to 300 gm were selected for continuous infusion test. […] Time to recovery of righting reflex from stopping infusion, and time to fully awake from stopping infusion were recorded.

[8] = test system: rats; format: in vivo, rat; conditions: rats of the MAP/HR figures, 2×ED50, tail vein
[9] = biological target: T1, 11-β-hydroxylase (Rattus norvegicus, UniProt P15393); conditions: compared with etomidate; cited from earlier work
T1 sequence (P15393 25-499): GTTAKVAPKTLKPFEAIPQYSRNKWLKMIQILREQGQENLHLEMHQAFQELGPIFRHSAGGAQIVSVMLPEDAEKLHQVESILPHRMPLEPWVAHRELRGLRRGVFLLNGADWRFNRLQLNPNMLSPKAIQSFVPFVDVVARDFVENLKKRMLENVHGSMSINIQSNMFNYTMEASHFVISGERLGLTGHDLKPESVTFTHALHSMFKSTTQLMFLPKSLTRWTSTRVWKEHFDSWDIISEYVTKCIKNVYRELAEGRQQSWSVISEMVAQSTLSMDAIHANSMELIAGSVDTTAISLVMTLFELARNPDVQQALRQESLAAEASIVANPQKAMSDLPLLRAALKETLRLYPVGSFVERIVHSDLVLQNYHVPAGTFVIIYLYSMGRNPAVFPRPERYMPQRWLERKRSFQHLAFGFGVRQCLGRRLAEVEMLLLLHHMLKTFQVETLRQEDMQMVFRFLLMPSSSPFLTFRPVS

[10] = H295R cell line, 0.1-10000 nM, HPLC-MS/MS, Table D3
[11] = H295R cell line, 0.1-10000 nM, HPLC-MS/MS, Table E3
[12] = H295R, 0.1-10000 nM, HPLC-MS/MS

In the case of `CC(=O)C1(OC(=O)c2cncn2[C@H](C)c2ccccc2)COC1` [Compound C3], the ED50 [1] is reported as 0.5 to 1 mg/kg, the Approximate therapeutic index [2] is reported as over 14 and the “Minimal lethal dose” value [2] is reported as over 10 mg/kg. The “Adverse reactions: Restlessness (incidence)” value [3] was “Restlessness (3/8), Red”, the “Righting reflex duration” value [3] was 1.31 ± 0.95 min and the “Adverse reactions: Red urine (incidence)” value [3] was “urine (8/8)”. For the same compound, the “Onset time” value [3] was 0.36 ± 0.12 min, the “Corticosterone as an indicator to determine the presence of inhibition” value (shortened to “Corticosterone as an indicator … of inhibition”) ([4]; H295R, Table C3) was 0 and the EC50 ([4]; Homo sapiens, NCI-H295R) was over 1 µM. For the same compound, the “Cortisol as an indicator to determine the presence of inhibition” value (“Cortisol as an indicator … of inhibition” for short) ([5]; H295R, Table C3) was 0, the EC50 ([5]; Homo sapiens, NCI-H295R) was over 1 µM and the “recovery time of the test animals' righting reflex” value [6] was 1.25 min. The Onset time ([7]; Table C4) was 3 to 4 min, the “Recovery time after stopping infusion” value ([7]; Table C4) was 10 to 14 min and the “Types and incidence of adverse reactions” value ([7]; Table C4) was “Restlessness (2/6), Tremor (3/6)”. For the same compound, the “recovery time of the test animals' righting reflex” value [8] was 75 s.
For `C[C@H](c1ccccc1)n1cncc1C(=O)O` [Etomidate acid, etomidate acid, reference compound], the “Corticosterone as an indicator … of inhibition” value [4, 10] was 0, the EC50 [4, 10] was over 10 µM and the “Corticosterone as an indicator … of inhibition” value [4, 11] was 0. For the same compound, the EC50 [4, 11] was over 10 µM, the EC50 [4, 12] was over 10 µM and the “Corticosterone as an indicator … of inhibition” value ([4]; H295R, Table A3) was 0. The “Corticosterone as an indicator … of inhibition” value ([4]; H295R, Table B3) was 0, the “Corticosterone as an indicator … of inhibition” value ([4]; H295R, Table C3) was 0 and the “Cortisol as an indicator … of inhibition” value [5, 10] was 0. The EC50 [5, 10] was over 10 µM, the “Cortisol as an indicator … of inhibition” value [5, 11] was 0 and the EC50 [5, 11] was over 10 µM. For the same compound, the EC50 [5, 12] was over 10 µM, the “Cortisol as an indicator … of inhibition” value ([5]; H295R, Table A3) was 0 and the “Cortisol as an indicator … of inhibition” value ([5]; H295R, Table B3) was 0. For the same compound, the “Cortisol as an indicator … of inhibition” value ([5]; H295R, Table C3) was 0 and the “inhibitory effect on 11-β-hydroxylase” value [9] was “little inhibitory effect”.
In the case of `C/C=C/C1(OC(=O)c2cncn2[C@H](C)c2ccccc2)COC1` [Compound D42], the ED50 [1] is reported as 0.5 to 1 mg/kg, the Approximate therapeutic index [2] is reported as over 12 and the “Minimal lethal dose” value [2] is reported as over 9 mg/kg. The “Righting reflex duration” value [3] was 2.50 ± 1.18 min, the “Adverse reactions: Red urine (incidence)” value [3] was “Red urine (8/8)” and the “Onset time” value [3] was 0.13 ± 0.02 min. The “Corticosterone as an indicator … of inhibition” value [4, 10] was 0, the EC50 ([4]; Homo sapiens, NCI-H295R) was over 1 µM and the “Cortisol as an indicator … of inhibition” value [5, 10] was 0. The EC50 ([5]; Homo sapiens, NCI-H295R) was over 1 µM, the “recovery time of the test animals' righting reflex” value [6] was 5.38 min and the Onset time ([7]; Table D4) was 3 to 4 min. For the same compound, the “Recovery time after stopping infusion” value ([7]; Table D4) was 12 to 16 min, the “Types and incidence of adverse reactions” value ([7]; Table D4) was “Tremor (6/6)” and the “recovery time of the test animals' righting reflex” value [8] was 323 s.
In the case of `CCC(CC)OC(=O)c1cncn1[C@H](C)c1ccccc1` [Compound C24], the ED50 [1] is reported as 0.01 to 0.1 mg/kg, the Approximate therapeutic index [2] is reported as over 11 and the “Minimal lethal dose” value [2] is reported as over 1 mg/kg. For the same compound, the “Adverse reactions: Convulsions (incidence)” value [3] was “Convulsions (1/8), Red”, the “Righting reflex duration” value [3] was 2.21 ± 1.28 min and the “Adverse reactions: Red urine (incidence)” value [3] was “urine (8/8)”. The “Onset time” value [3] was 0.49 ± 0.15 min, the “Corticosterone as an indicator … of inhibition” value ([4]; H295R, Table C3) was 0 and the EC50 ([4]; Homo sapiens, NCI-H295R) was over 1 µM. The “Cortisol as an indicator … of inhibition” value ([5]; H295R, Table C3) was 0, the EC50 ([5]; Homo sapiens, NCI-H295R) was over 1 µM and the “recovery time of the test animals' righting reflex” value [6] was 2.25 min. The Onset time ([7]; Table C4) was 3 to 4 min, the “Recovery time after stopping infusion” value ([7]; Table C4) was 9 to 13 min and the “Types and incidence of adverse reactions” value ([7]; Table C4) was “Tremor (1/6)”. For the same compound, the “recovery time of the test animals' righting reflex” value [8] was 135 s.
In the case of `CSCOC(=O)c1cncn1[C@H](C)c1ccccc1` [Compound C26], the ED50 [1] is reported as 0.5 to 1 mg/kg, the Approximate therapeutic index [2] is reported as over 11 and the “Minimal lethal dose” value [2] is reported as over 6 mg/kg. The “Adverse reactions: Muscle twitching (incidence)” value [3] was “Muscle twitching (1/8),”, the “Righting reflex duration” value [3] was 2.11 ± 1.02 min and the “Adverse reactions: Red urine (incidence)” value [3] was “Red urine (8/8)”. For the same compound, the “Onset time” value [3] was 0.30 ± 0.09 min, the “Corticosterone as an indicator … of inhibition” value ([4]; H295R, Table C3) was 0 and the EC50 ([4]; Homo sapiens, NCI-H295R) was over 10 µM. The “Cortisol as an indicator … of inhibition” value ([5]; H295R, Table C3) was 0, the EC50 ([5]; Homo sapiens, NCI-H295R) was over 10 µM and the “recovery time of the test animals' righting reflex” value [6] was 2.28 min. For the same compound, the Onset time ([7]; Table C4) was 2 to 3 min, the “Recovery time after stopping infusion” value ([7]; Table C4) was 9 to 13 min and the “Types and incidence of adverse reactions” value ([7]; Table C4) was “Tremor (2/6)”. The “recovery time of the test animals' righting reflex” value [8] was 137 s.
In the case of `COCC1(COC(=O)c2c(F)ncn2[C@H](C)c2ccccc2)CCC1` [Compound E2], the ED50 [1] is reported as 0.1 to 0.5 mg/kg, the Approximate therapeutic index [2] is reported as over 25 and the “Minimal lethal dose” value [2] is reported as over 5 mg/kg. The “Righting reflex duration” value [3] was 2.20 ± 1.11 min, the “Adverse reactions: Red urine (incidence)” value [3] was “(8/8)” and the “Onset time” value [3] was 0.23 ± 0.07 min. For the same compound, the “Corticosterone as an indicator … of inhibition” value [4, 11] was 0, the EC50 ([4]; Homo sapiens, NCI-H295R) was over 10 µM and the “Cortisol as an indicator … of inhibition” value [5, 11] was 0. The EC50 ([5]; Homo sapiens, NCI-H295R) was over 10 µM, the “recovery time of the test animals' righting reflex” value [6] was 2.15 min and the Onset time ([7]; Table E4) was 3 to 4 min. The “Recovery time after stopping infusion” value ([7]; Table E4) was 11 to 13 min, the “Types and incidence of adverse reactions” value ([7]; Table E4) was “Tremor (2/6)” and the “recovery time of the test animals' righting reflex” value [8] was 129 s.
